The subject of this assay is monkeys trained to discriminate cocaine (0.40 mg/kg) from saline. In words: Cocaine drug discrimination (substitution protocol) in rhesus monkeys. As to conditions: 0.40 mg/kg cocaine i.m.; training days preceding test days. The assay is classed as in vivo, rhesus monkeys (Macaca mulatta). The text has this: Subjects: The subjects were four male rhesus monkeys (Macaca mulatta) each weighing 7.0-8.0 kg. Each monkey was maintained on a diet of 7-12 monkey biscuits (Purina Monkey Chow Jumbo #5037) and one piece of fresh fruit per day. During the week, all food was delivered after the experimental session, whereas on weekends, food was delivered between 9 a.m. and noon. Water was freely available at all times. The room in which the monkeys were housed was maintained on a 12-hr light/dark cycle, with lights on from 7 a.m. to 7 p.m.
Apparatus: Each monkey was housed individually in a well-ventilated, stainless steel chamber (56×71×69 cm). The home cages of all monkeys were modified to include an operant panel (28×28 cm) mounted on the front wall. Three square translucent response keys (6.4×6.4 cm) were arranged 2.54 cm apart in a horizontal row 3.2 cm from the top of the operant panel. Each key could be transilluminated by red or green stimulus lights (Superbright LED'S). In addition, the operant panel supported an externally mounted pellet dispenser (Gerbrands, Model G53 10, Arlington, Mass.) that delivered 1 gm fruit-flavored food pellets (Precision Primate Pellets Formula L/I Banana Flavor, P. J. Noyes Co., Lancaster, N.H.) to a food receptacle mounted on the cage beneath the operant response panel. Operation of the operant panels and data collection were accomplished with IBM-compatible computers and interface systems (MedAssociates; St. Albans, Vt.) located in a separate room.
Discrimination Training: Discrimination training was conducted 5 days per week during daily sessions composed of multiple cycles. Each cycle consisted of a 15-min time-out period followed by a 5-min response period. During the time-out, all stimulus lights were off, and responding had no scheduled consequences. During the response period, the right and left response keys were transilluminated red or green, and monkeys could earn up to 10 food pellets by responding under a FR 30 schedule of food presentation. For all four monkeys in this study, the left key was illuminated green, and the right key was illuminated red. The center key was not illuminated at any time, and responding on the center key had no scheduled consequences. If all available food pellets were delivered before the end of the 5-min response period, the stimulus lights transilluminating the response keys were turned off, and responding had no scheduled consequences for the remainder of the 5-min period.
On training days, monkeys were given an i.m. injection of either saline or 0.40 mg/kg cocaine 5-min after the beginning of each time-out period (i.e., 10 min before the response period). Following the administration of saline, responding on only the green key (the saline-appropriate key) produced food, whereas following administration of 0.40 mg/kg cocaine, only responding on the red key (the drug-appropriate key) produced food. Responses on the inappropriate key reset the FR requirement on the appropriate key. Sessions consisted of 1 to 5 cycles, and if the training dose of cocaine was administered, it was administered only during the last cycle. Thus, training days consisted of 0 to 5 saline cycles followed by 0 to 1 drug cycles.
During each response period, 3 dependent variables were determined using the following equations.
1) Percent injection-appropriate responding prior to delivery of the first reinforcer.
2) Percent injection-appropriate responding for the entire response period.
Monkeys were considered to have acquired cocaine discrimination when the following three criteria were met for 7 of 8 consecutive training sessions: 1) the percent injection-appropriate responding prior to delivery of the first reinforcer was greater than or equal to 80% for all cycles; 2) the percent injection-appropriate responding for the entire cycle was greater than or equal to 90% for all cycles; 3) response rates during saline training cycles were greater than 0.5 responses per second. […]

These results are taken from patent US8232315B2, “Methods for treating drug addiction and improving addiction-related behavior” (SK Biopharmaceuticals Co., Ltd., priority 2009, dated 2012).

SMILES strings stand for the structures.

As for `COC(=O)[C@H]1[C@@H](OC(=O)c2ccccc2)C[C@@H]2CC[C@H]1N2C` [cocaine, reference compound], the “Mean response rate during drug training cycles” value is 2.58 (±0.67) responses/sec.
